Results as given in US6200985A, “Rapamycin derivatives” (Novartis AG, priority 1995, dated 2001).

Experiments:
Balb/c spleen cells = test: Mixed lymphocyte reaction (MLR), murine; assay type: cell-based, mouse; settings: inhibition of Balb/c spleen cell proliferation, 5 days co-incubation with irradiated CBA spleen cells; relative to rapamycin
Text: 1. Mixed lymphocyte reaction (MLR)
The Mixed Lymphocyte Reaction was originally developed in connection with allografts, to assess the tissue compatibility between potential organ donors and recipients, and is one of the best established models of immune reaction in vitro. […] The irradiated allogeneic cells induce a proliferative response in the Balb/c spleen cells which can be measured by labeled precursor incorporation into the DNA. […] The inhibitory capacity of the test sample may be compared to rapamycin and expressed as a relative IC50 (i.e. IC50 test sample/IC50 rapamycin).

[1] = system: interleukin-6 (IL-6)-dependent mouse hybridoma cell line; test: IL-6 mediated proliferation (IL-6 PROL); assay type: cell-based; settings: inhibition of IL-6 dependent hybridoma proliferation, (3-H)thymidine incorporation; relative to rapamycin
Experimental: 2. IL-6 mediated proliferation (IL-6 PROL)
The capacity of the Compounds of formula I to interfere with growth factor, associated signalling pathways is assessed using an interleukin-6 (IL-6)-dependent mouse hybridoma cell line. The assay is performed in 96-well microtiter plates. […] Following a 66 hour incubation in the absence or presence of a test sample, cells are pulsed with 1 μCi (3-H)thymidine/well for another 6 hours, harvested and counted by liquid scintillation. (3-H)thymidine incorporation into DNA correlates with the increase in cell number and is thus a measure of cell proliferation. […] The inhibitory capacity of the test sample may be compared to rapamycin and expressed as a relative IC50 (i.e. test sample/IC50 rapamycin).

[2] = biological target: T1, recombinant human macrophilin-12 (FKBP-12) (Homo sapiens, UniProt P62942); test: Macrophilin binding assay (MBA), competitive binding against immobilized FK-506; settings: inhibition of biot-MAP binding to immobilized FK-506
T1 construct: biotin (label)
T1 sequence (P62942 whole entry): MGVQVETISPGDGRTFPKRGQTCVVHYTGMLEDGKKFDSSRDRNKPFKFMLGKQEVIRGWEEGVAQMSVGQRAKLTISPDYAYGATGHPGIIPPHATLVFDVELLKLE
Text: 3. Macrophilin binding assay (MBA)
Rapamycin and the structurally related immunosuppressant, FK-506, are both known to bind in vivo to macrophilin-12 (also known as FK-506 binding protein or FKBP-12), and this binding is thought to be related to the immunosuppressive activity of these compounds. […] In this assay, FK-506 coupled to BSA is used to coat microtiter wells. Biotinylated recombinant human macrophilin-12 (biot-MAP) is allowed to bind in the presence or absence of a test sample to the immobilized FK-506. After washing (to remove non-specifically bound macrophilin), bound biot-MAP is assessed by incubation with a streptavidin-alkaline phosphatase conjugate, followed by washing and subsequent addition of p-nitrophenyl phosphate as a substrate. The read-out is the OD at 405 nm. Binding of a test sample to biot-MAP results in a decrease in the amount of biot-MAP bound to the FK-506 and thus in a decrease in the OD405. A dilution series of the test sample allows determination of the concentration resulting in 50% inhibition of the biot-MAP binding to the immobilized FK-506 (IC50). The inhibitory capacity of a test sample is compared to the IC50 of free FK506 as a standard and expressed as a relative IC50 (i.e., IC50 test sample/IC50 -free FK506).

rat kidney allograft = test: Chronic allograft rejection, rat kidney allograft model; assay type: in vivo; settings: per os, 0.5 to 2.5 mg/kg, 69-72 days starting day 53-64 after transplantation
Experimental: 10. Chronic Allogaft Rejection
The kidney of a male DA (RT1^a) rat is orthotopically transplanted into a male Lewis (RT1^l) recipient. In total 24 animals are transplanted. All animals are treated with cyclosporine A at 7.5 mg/kg/day per os for 14 days starting on the day of transplantation, to prevent acute cellular rejection. Contralateral nephrectomy is not performed. Each experimental group treated with a distinct dose of a compound of formula I or placebo comprises six animals.
Starting at day 53-64 after transplantation, the recipient animals are treated per os for another 69-72 days with a compound of formula I or receive placebo. At 14 days after transplantation animals are subjected to graft assessment by magnetic resonance imaging (MRI) with perfusion measurement of the kidneys (with comparison of the grafted kidney and the own contralateral kidney). This is repeated at days 53-64 after transplantation and at the end of the experiment. The animals are then autopsied. Rejection parameters such as MRI score, relative perfusion rate of the grafted kidney and histologic score of the kidney allograft for cellular rejection and vessel changes are determined and statistically analyzed.

[3] = system: myointimal proliferation in balloon-injured carotid artery; test: Angioplasty (balloon catheterization of the carotid artery); assay type: in vivo; settings: rat, per os, daily dose 0.5 to 2.5 mg/kg, day -3 to day +14
Experimental: Under Isofluorane anaesthesia, a Fogarty 2F catheter is introduced into the left common carotid artery via the external carotid and inflated (distension=10 μl H2 O). The inflated balloon is withdrawn along the length of the common carotid three times, the latter two times whilst twisting gently to obtain a uniform de-endothelialization. The cathether is then removed, a ligature placed around the external carotid to prevent bleeding and the animals allowed to recover.
2 groups of 12 RoRo rats (400 g, approximately 24 weeks old) are used for the study: one control group and one group receiving the compound to be tested. The rats are fully randomized during all handling, experimental procedures and analysis.
The compound to be tested is administered p.o. (gavage) starting 3 days before balloon injury (day -3) until the end of the study, 14 days after balloon injury (day +14). Rats are kept in individual cages and allowed food and water ad libidum. […]
Sections 1-2 μm thick are cut from the middle section of each carotid with a hard metal knife on a rotary microtome and stained for 2 min with Giemse-stain. About 5 sections from each carotid are thus prepared and the cross-sectional areal of the media, neointima and the lumen morphometrically evaluated by means of an image analysis system (MCID, Toronto, Canada).

relative IC50 (IC50 test sample/IC50 free FK506) [2] | Compound | relative IC50 (IC50 test sample/IC50 rapamycin) (Balb/c spleen cells) | relative IC50 (test sample/IC50 rapamycin) [1] | rejection parameters (MRI score, relative perfusion rate of grafted kidney, histologic score) (rat kidney allograft) | myointimal proliferation [3]
2.8 | CCC#CCO[C@H]1C[C@@H]2CC[C@@H](C)[C@@](O)(O2)C(=O)C(=O)N2CCCC[C@H]2C(=O)O[C@H]([C@H](C)C[C@@H]2CC[C@@H](O)[C@H](OC)C2)C[C@H](O)[C@H](C)/C=C(\C)[C@@H](O)[C@@H](OC)C(=O)[C@H](C)C[C@H](C)/C=C/C=C/C=C/1C [Example 2, 16-pent-2-ynyloxy-32(S)-dihydro rapamycin] | 0.08 | 0.09 | reduction in all above mentioned rejection parameters | inhibit myointimal proliferation
25 | CO[C@H]1C[C@@H]2CC[C@@H](C)[C@@](O)(O2)C(=O)C(=O)N2CCCC[C@H]2C(=O)O[C@H]([C@H](C)C[C@@H]2CC[C@@H](OCCO)[C@H](OC)C2)C[C@H](O)[C@H](C)/C=C(\C)[C@@H](O)[C@@H](OC)C(=O)[C@H](C)C[C@H](C)/C=C/C=C/C=C/1C [Example 5, (32S)-dihydro40-(2-hydroxy)ethyl-rapamycin] | – | – | – | –

Compound | relative IC50 (IC50 test sample/IC50 free FK506) [2] | relative IC50 (IC50 test sample/IC50 rapamycin) (Balb/c spleen cells) | relative IC50 (test sample/IC50 rapamycin) [1] | rejection parameters (MRI score, relative perfusion rate of grafted kidney, histologic score) (rat kidney allograft) | myointimal proliferation [3]
CO[C@H]1C[C@@H]2CC[C@@H](C)[C@@](O)(O2)C(=O)C(=O)N2CCCC[C@H]2C(=O)O[C@H]([C@H](C)C[C@@H]2CC[C@@H](O)[C@H](OC)C2)CC[C@H](C)/C=C(\C)[C@@H](O)[C@@H](OC)C(=O)[C@H](C)C[C@H](C)/C=C/C=C/C=C/1C [Example 1, 32-Deoxorapamycin] | 1 | 0.3 | 0.2 | reduction in all above mentioned rejection parameters | inhibit myointimal proliferation
